Patent US20260070945A1, “MACROCYCLIC IMMUNOMODULATORS” (Bristol-Myers Squibb Company, priority 2022, published 2026)
Read-outs that look alike come from different tables or passages of the source. Where a SMILES comes first, the peptide text is derived from it. Bridges are numbered along the chain shown (N, C = ends). [ ]: non-standard residue; d: D form. The star is where a group is joined. Phe(3-CF3) = N[C@@H](Cc1cccc(C(F)(F)F)c1)C(=O)O; Phe(4-COOH) = N[C@@H](Cc1ccc(C(=O)O)cc1)C(=O)O; Bip = N[C@@H](Cc1ccc(-c2ccccc2)cc1)C(=O)O; Phe(4-CN) = N#Cc1ccc(C[C@H](N)C(=O)O)cc1; Phe(3-Me) = Cc1cccc(C[C@H](N)C(=O)O)c1; NH(CH2)12COOH = O=C(O)CCCCCCCCCCCCN*; Val(3-OH) = CC(C)(O)[C@H](N)C(=O)O; Cha = N[C@@H](CC1CCCCC1)C(=O)O; Carboxymethyl = O=C(O)C*; NMeA = CN[C@@H](C)C(=O)O; Aun = NCCCCCCCCCCC(=O)O; Dab = NCC[C@H](N)C(=O)O; Dap = NC[C@H](N)C(=O)O; AEEA = NCCOCCOCC(=O)O

Biological target: T1, PD-1/PD-L1 interaction (PE-labeled human PD-L1-Ig binding to Jurkat cell line over-expressing human PD-1) (Homo sapiens, UniProt Q15116)
T1 construct: expressed in transfected cells; host or cells: Jurkat
T1 sequence (Q15116 25-288): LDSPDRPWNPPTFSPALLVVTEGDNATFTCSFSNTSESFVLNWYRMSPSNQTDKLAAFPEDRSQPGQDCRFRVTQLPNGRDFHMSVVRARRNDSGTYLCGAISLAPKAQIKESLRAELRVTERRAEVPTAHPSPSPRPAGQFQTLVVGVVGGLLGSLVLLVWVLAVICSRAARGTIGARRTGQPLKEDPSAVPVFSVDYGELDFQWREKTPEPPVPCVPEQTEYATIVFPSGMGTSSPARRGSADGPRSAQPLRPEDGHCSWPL
Assay: Jurkat-PD-1 Cell Binding High-Content Screening Assay (CBA)
Outline: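 High-content imaging read-out of PE-PD-L1-Ig binding (20 nM final, 1 h) to Jurkat-hPD-1 cells, after 2 h compound exposure at 37 °C in DMEM with 10% FCS. Nuclei counterstained with Hoechst 33342 after paraformaldehyde fixation.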

[1] = Jurkat-hPD-1 cells, PE-labeled PD-L1-Ig 20 nM final; read-out: Jurkat HPD1 PDL1 IC50

SMILES | IC50 [1] [nM] | IC50 (PE-labeled PD-L1-Ig 20 nM final, Jurkat-hPD-1 cells; read-out: Jurkat HPD1 PDL1 IC50) [nM]
CC(C)C[C@H]1NC(=O)[C@H](C)N(C)C(=O)[C@H](CCC(N)=O)NC(=O)[C@H](Cc2ccc(-c3ccccc3)cc2)NC(=O)[C@H](Cc2ccc(OCC(=O)O)cc2)NC(=O)[C@H](Cc2cccc(C(F)(F)F)c2)NC(=O)[C@H](CC(=O)O)NC(=O)[C@H](Cc2ccc(OCC(=O)O)cc2)NC(=O)[C@H](Cc2cnc[nH]2)NC(=O)CSC[C@@H](C(=O)N[C@@H](CCN)C(=O)NCCCCCCCCCCCCC(=O)O)NC(=O)[C@H](CCC(=O)O)NC(=O)[C@H](C(C)(C)O)NC(=O)[C@H](CC2CCCCC2)NC(=O)[C@H](CCN)NC1=O [Example 2630] ({CH2CO}-HY(Carboxymethyl)D[Phe(3-CF3)]Y(Carboxymethyl)[Bip]Q[NMeA][dL][Dab][Cha][Val(3-OH)]EC[Dab]-{NH(CH2)12COOH}; thioether N-14) | – | 9.5
CC(C)C[C@@H]1NC(=O)[C@H](Cc2c[nH]c3ccccc23)NC(=O)[C@H](CC(=O)O)NC(=O)[C@H](Cc2ccc(OCC(=O)O)cc2)NC(=O)[C@H](Cc2ccc(OCC(=O)O)cc2)NC(=O)CSC[C@@H](C(=O)NCCOCCOCC(=O)NCCCCCCCCCCC(=O)O)NC(=O)[C@H](CO)NC(=O)[C@H](Cc2cnc[nH]2)NC(=O)[C@H](CC2CCCCC2)NC(=O)[C@H](CCC(=O)O)NC(=O)[C@@H](CC(C)C)NC(=O)[C@H](C)N(C)C(=O)[C@H](C(C)C)NC(=O)[C@H](Cc2ccc(-c3ccccc3)cc2)NC1=O [Example 2449] ({CH2CO}-Y(Carboxymethyl)Y(Carboxymethyl)DWL[Bip]V[NMeA][dL]E[Cha]HSC[AEEA][Aun]-OH; thioether N-14) | 272 | –
CC(C)C[C@@H]1NC(=O)[C@H](Cc2c[nH]c3ccccc23)NC(=O)[C@H](CC(=O)O)NC(=O)[C@H](Cc2ccc(C(=O)O)cc2)NC(=O)[C@H](Cc2ccc(OCC(=O)O)cc2)NC(=O)CSC[C@@H](C(=O)NCC(=O)N[C@@H](CN)C(=O)NCC(=O)NCCCCCCCCCCC(=O)O)NC(=O)[C@H](CO)NC(=O)[C@H](C(C)C)NC(=O)[C@H](CC2CCCCC2)NC(=O)[C@H](CCN)NC(=O)[C@@H](CC(C)C)NC(=O)[C@H](C)N(C)C(=O)[C@H](C(C)C)NC(=O)[C@H](Cc2ccc(-c3ccccc3)cc2)NC1=O [Example 1028] ({CH2CO}-Y(Carboxymethyl)[Phe(4-COOH)]DWL[Bip]V[NMeA][dL][Dab][Cha]VSCG[Dap]G[Aun]-OH; thioether N-14) | 14.7 | –

Continued, values first:

IC50 [1] [nM] | IC50 (PE-labeled PD-L1-Ig 20 nM final, Jurkat-hPD-1 cells; read-out: Jurkat HPD1 PDL1 IC50) [nM] | SMILES
13.6 | – | CC(C)C[C@@H]1NC(=O)[C@H](Cc2c[nH]c3ccccc23)NC(=O)[C@H](CC(=O)O)NC(=O)[C@H](Cc2ccc(C(=O)O)cc2)NC(=O)[C@H](Cc2ccc(OCC(=O)O)cc2)NC(=O)CSC[C@@H](C(=O)NCCOCCOCC(=O)NCCCCCCCCCCC(=O)O)NC(=O)[C@H](CCN)NC(=O)[C@H](C(C)(C)O)NC(=O)[C@H](CC2CCCCC2)NC(=O)[C@H](CCN)NC(=O)[C@@H](CC(C)C)NC(=O)[C@H](C)N(C)C(=O)[C@H](C(C)C)NC(=O)[C@H](Cc2ccc(-c3ccccc3)cc2)NC1=O [Example 1120] ({CH2CO}-Y(Carboxymethyl)[Phe(4-COOH)]DWL[Bip]V[NMeA][dL][Dab][Cha][Val(3-OH)][Dab]C[AEEA][Aun]-OH; thioether N-14)
11 | – | Cc1cccc(C[C@@H]2NC(=O)[C@H](CC(=O)O)NC(=O)[C@H](Cc3ccc(C(=O)O)cc3)NC(=O)[C@H](Cc3ccc(C#N)cc3)NC(=O)CSC[C@@H](C(=O)N[C@@H](CCN)C(=O)NCCCCCCCCCCC(=O)O)NC(=O)[C@H](CO)NC(=O)[C@H](C(C)(C)O)NC(=O)[C@H](CC3CCCCC3)NC(=O)[C@H](CCN)NC(=O)[C@@H](CC(C)C)NC(=O)[C@H](C)N(C)C(=O)[C@H](Cc3ccc(OCC(=O)O)cc3)NC(=O)[C@H](Cc3ccc(-c4ccccc4)cc3)NC(=O)[C@H](Cc3ccc(OCC(=O)O)cc3)NC2=O)c1 [Example 1002] ({CH2CO}-[Phe(4-CN)][Phe(4-COOH)]D[Phe(3-Me)]Y(Carboxymethyl)[Bip]Y(Carboxymethyl)[NMeA][dL][Dab][Cha][Val(3-OH)]SC[Dab][Aun]-OH; thioether N-14)
